US5514648A, “Fungicidally active compounds” (priority 1990, dated 1996)
Where a SMILES comes first, the peptide text is derived from it. [ ]: non-standard residue; d: D form. NMeI = CC[C@H](C)[C@H](NC)C(=O)O; NMeD = CN[C@@H](CC(=O)O)C(=O)O; NMeV = CN[C@H](C(=O)O)C(C)C; Pip = O=C(O)[C@@H]1CCCCN1; dLac = C[C@@H](O)C(=O)O

Tests used:
Ames spot tests = assay type: cell-based; details: crystalline compound
Text: (§1) The toxicity of BK 202 was investigated in the following tests using the compound of formula IV in crystaline form: […]
(§2) Ames spot tests and in vitro testing of dermal irritation (Skintex®).

S. sclerotiorum = assay: Fungicidal activity, mycelial growth on potato dextrose agar; assay type: cell-based, Sclerotinia sclerotiorum; details: in as low concentrations as 0.0016 μg/ml, 3 to 6 days
Method: (§3) Experiments were carried out to determine the potency of the compound of formula IV towards various fungi. The active ingredient was dissolved in 60% ethanol and added to cooled potato dextrose agar to give final concentrations of 25, 5, 1, 0.2, 0.04 and 0.0016 μg a.i. per ml agar, respectively. Control dishes contained no active ingredient.
(§4) 10 ml Agar was poured into 9 cm petri dishes and each concentration was inoculated with actively growing mycelium of the fungal isolates tested for. The dishes were incubated at the optimum temperature for growth of the isolates for 3 to 6 days after which time the growth was measured in mm and compared to the controls.
(§5) The test isolates covered a broad range of fungi within the Oomycetes, the Ascomycetes, the Basidiornycetes, the Deuterornycetes, and the Zygomycetes.

Botrytis cinerea [1] = assay: Activity against Botrytis cinerea on tomato plants; assay type: in vivo; details: liquid suspension 0.035 mg active ingredient per ml; inoculated after 24 hours; 6 days incubation; controls all overgrown
Method: Tomato plants (variety "First in Field", 3 weeks old) were treated with a liquid suspension containing 0.035 mg active ingredient per ml. The plants were kept 24 hours in a green house to dry before they were inoculated with a spore suspension containing 10^5 Botrytis cinerea spores per ml in 25% grapefruit juice. […] Control plants that were treated as above except for the application of the active ingredient in suspension were all overgrown with Botrytis cinerea.

[2] = Temperature and pH stability (HPLC); assay type: physicochemical; details: buffer, 16 hours
Method: Procedure: The compound BK202 was solubilized in buffer at the pHs indicated in FIG. 1, and then placed at 25°-55° C. for 16 hours. The buffers used were phosphate-citrate (T. C. McIlvaine, J. Biol. Chem. 49,183(1921), in the pH range 2.5-7 and from pH 7-9.5 is used TRIS 0.05 M. After 16 hours, the samples were filtered on a membrane filter 0.45 μm, and then analyzed by the HPLC method.
However, this may reside in experimental error.
Column: Spherisorb Hexyl 5 μm, 140 mm×4.6 mm
Eluent: 55% Acetonitrile +0.1% Trifluor acetic Acid
Retention time: ca. 6.3 minutes

C. beticola = assay: Fungicidal activity, mycelial growth on potato dextrose agar; assay type: cell-based, Cercospora beticola; details: 25 to 0.0016 μg a.i. per ml agar, 3 to 6 days
Method: as §3, §4, §5

Basidiornycetous species = assay: as above; assay type: cell-based, Basidiornycetes; details: 25 to 0.0016 μg a.i. per ml agar
Method: as §3, §4, §5

Botrytis cinerea [3] = assay: Field trial, Botrytis cinerea on strawberries (Senga-Sengana); assay type: in vivo; details: 100, 300, and 900 g a.i./ha, four sprayings
Text: Field trial performed in Funen, Denmark, in accordance with the EPPO guidelines (Guideline for the Biological Evaluation of Fungicities. Botrytis cinerea on Strawberries). The plot size was 20 m^2 and three replicates were used. The active compound was used in a test formulation containing approximately 10% active ingredient (a.i.). Three concentrations of active compound were applied: 100, 300, and 900 g a.i./ha. The spraying volume was 1200 l/ha. The strawberries were sprayed at the following growth stages: T1, onset of flowering; T2 : 10% flowering; T3, 50% flowering; and T4, 80% flowering. The commercial fungicide ROVRAL® was used as standard reference. The assessment was performed by counting and weighing healthy and infected strawberries, respectively.

Toxicology IC50, ATP = details: estimated
Method: Based on these tests the IC50 values for BK 202 were estimated as: ATP >10 μg/ml;

Ascomycetous species = assay: Fungicidal activity, mycelial growth on potato dextrose agar; assay type: cell-based, Ascomycetes; details: 25 to 0.0016 μg a.i. per ml agar
Method: as §3, §4, §5

Oornycetous species = assay: as above; assay type: cell-based, Oomycetes; details: 25 to 0.0016 μg a.i. per ml agar
Method: as §3, §4, §5

[4] = in vitro testing of dermal irritation (Skintex)
Text: as §1, §2

Botrytis cinerea [5] = assay: Green house trial, Botrytis cinerea on tomatoes (Matador); assay type: in vivo; details: at all the tested concentrations 0.01%, 0.03%, and 0.09% a.i.
Text: Green house trial performed in Lyngby, Denmark.
A plot consisted of 7 plants (approximately 12 weeks old, 1 m high) and three replicates were used. The plants were kept in a plastic "tent" to maintain a high humidity. Before spraying the plants 20 leaves per plant were mechanically injured to improve the attack of Botrytis cinerea. The active compound was used in a test formulation containing approximately 10% active ingredient (a.i.). Three concentrations of active compound were applied: 0.01%, 0.03%, and 0.09% a.i. The water volume was 770 ml/plot.
The tomatoes were sprayed just after wounding the leaves. 24 hours after fungicide treatment an artificial inoculation was done by spraying spores of B. cinerea suspended in 30% orange juice on the plants.
The commercial fungicide RONILAN®was used as standard reference.
The assessment was performed by counting the number of attacks on leaves, stalks, fruits, and flower buds.

[6] = tested on: Botrytis cinerea isolate A (resistant to BENLATE®); assay: In vitro agar growth assay, fungicide resistant Botrytis cinerea; assay type: cell-based; details: 3 days, 25 C, control 76
Method: (§6) Activity against fungicide resistant Botrytis cinerea isolates One isolate resistant to BENLATE® (isolate A), and one isolate resistant to BENLATE®,ROVRAL® and SUMISCLEX® (isolate B) were isolated from plants which had been sprayed with the above mentioned pesticides. The effect of BK 202 on these isolates was determined in an in vitro assay and compared with the three commercial pesticides. The fungicides were added to agar and dispensed in petri dishes at different concentrations and were inoculated with a sensitive (normal(isolate C)) and the two resistant strains. After 3 days at a temperature of 25 C growth was measured in mm.

[7] = tested on: Botrytis cinerea isolate B (resistant to BENLATE®, ROVRAL® and SUMISCLEX®); assay: as above; assay type: cell-based; details: 3 days, 25 C, control 80
Method: as §6

[8] = tested on: Botrytis cinerea isolate C (sensitive, normal); assay: In vitro agar growth assay, sensitive Botrytis cinerea; assay type: cell-based; details: 3 days, 25 C, control 74
Method: as §6

A. alternata = assay: Fungicidal activity, mycelial growth on potato dextrose agar; assay type: cell-based, Alternaria alternata; details: 25 to 0.0016 μg a.i. per ml agar, 3 to 6 days
Method: as §3, §4, §5

[9] = concentration 0.125 (unit not given)
[10] = concentration 2 (unit not given)
[11] = concentration 10 (unit not given)

Structure (SMILES): CC[C@H](C)[C@H]1C(=O)NCC(=O)N(C)[C@@H](C(C)C)C(=O)N[C@@H](Cc2ccc(OC)cc2)C(=O)O[C@H](C)C(=O)N2CCCC[C@H]2C(=O)N(C)[C@@H](C(C)C)C(=O)N[C@@H](C(C)C)C(=O)N(C)[C@@H](CC(=O)O)C(=O)N(C)[C@@H](C(C)C)C(=O)N1C [BK 202, cyclo- Pec-MeVal-Val-MeAsp-MeVal-MeIle-Gly-MeVal-TyrOMe-D-Lact!] (cyclo(G[NMeV]Y(Me)[dLac][Pip][NMeV]V[NMeD][NMeV][NMeI]))
- Ames spot tests (Ames spot tests): no indication of toxicity
- inhibition of growth (S. sclerotiorum): very strong
- attack from the fungus on tomato plants (Botrytis cinerea [1]): No attack from the fungus was observed
- stability at pH values above 8 ([2]; 25°-55° C.): decreases rapidly
- stability optimum (pH) ([2]; 25°-55° C., stability seems independent of temperature): ~7
- stability at pH values below 7 ([2]; except at 25° C., where the decrease seems rapid (possibly experimental error)): decreases slowly
- inhibition of growth (C. beticola): weaker
- fungicidal activity (Basidiornycetous species): practically no activity
- fungicidal effect (degree of infection, FIG. 8) compared to ROVRAL® (Botrytis cinerea [3]): superior
- IC50, ATP (Toxicology IC50, ATP): > 10 µg/mL
- fungicidal activity (Ascomycetous species): most active
- fungicidal activity (Oornycetous species): practically no activity
- dermal irritation score, Skintex® test [4]: lowest possible irritation
- fungicidal effect (degree of infection, FIG. 10) compared to RONILAN® (Botrytis cinerea [5]): superior
- growth, Isolate A [6, 9]: 0 mm
- growth, Isolate A [6, 10]: 0 mm
- growth, Isolate A [6, 11]: 0 mm
- growth, Isolate B [7, 9]: 0 mm
- growth, Isolate B [7, 10]: 0 mm
- growth, Isolate B [7, 11]: 0 mm
- growth, Isolate C [8, 9]: 0 mm
- growth, Isolate C [8, 10]: 0 mm
- growth, Isolate C [8, 11]: 0 mm
- inhibition of growth (A. alternata): weaker
